Test results from ChEMBL document CHEMBL4808252, “Identification of new [1,2,4]triazolo[4,3-a]quinoxalines as potent VEGFR-2 tyrosine kinase inhibitors: Design, synthesis, anticancer evaluation, and in silico studies” (Bioorg Med Chem, 2021).

Tests used:
MCF7 = assay: Antiproliferative activity against human MCF7 cells assessed as cell growth inhibition incubated for 4 hrs by MTT assay; conditions: MCF7, 4 h
HepG2 [1] = assay: Antiproliferative activity against human HepG2 cells assessed as cell growth inhibition incubated for 4 hrs by MTT assay; conditions: HepG2, 4 h
HepG2 [2] = assay: Induction of apoptosis in human HepG2 cells assessed as early apoptotic cells at 5.4 uM incubated for 24 hrs by annexinV-FITC/propidium iodide staining based flow cytometry (reference value: 7.22 +/- 0.64 %); type: functional
HepG2 [3] = assay: Cell cycle arrest in human HepG2 cells assessed as accumulation at G2/M phase at 5.4 uM incubated for 24 hrs by DNA flow cytometric assay (reference value: 12.53 +/- 1.48%); type: functional
HepG2 [4] = assay: Cell cycle arrest in human HepG2 cells assessed as accumulation at G1 phase at 5.4 uM incubated for 24 hrs by DNA flow cytometric assay (reference value: 66.40 +/- 3.21%); type: functional
HepG2 [5] = assay: Induction of apoptosis in human HepG2 cells assessed as late apoptotic cells at 5.4 uM incubated for 24 hrs by annexinV-FITC/propidium iodide staining based flow cytometry (reference value: 0.13 +/- 0.01%); type: functional
HepG2 [6] = assay: Induction of apoptosis in human HepG2 cells assessed as viable cells at 5.4 uM incubated for 24 hrs by annexinV-FITC/propidium iodide staining based flow cytometry (reference value: 92.54 +/- 1.64 %); type: functional; conditions: read-out: Activity
HepG2 [7] = assay: Induction of apoptosis in human HepG2 cells assessed as necrotic cells at 5.4 uM incubated for 24 hrs by annexinV-FITC/propidium iodide staining based flow cytometry (reference value: 0.07 +/- 0.01 %); type: functional
Hepatocyte = assay: Cytotoxicity against rat hepatocytes assessed as reduction in cell growth for 4 hrs by MTT assay
HepG2 [8] = assay: Cell cycle arrest in human HepG2 cells assessed as accumulation at S phase at 5.4 uM incubated for 24 hrs by DNA flow cytometric assay (reference value: 19.52 +/- 1.55%); type: functional
HepG2 [9] = assay: Cell cycle arrest in human HepG2 cells assessed as accumulation at sub G1 phase at 5.4 uM incubated for 24 hrs by DNA flow cytometric assay (reference value: 1.53 +/- 0.21%); type: functional

Compound | IC50 (MCF7) [µM] | IC50 (HepG2 [1]) [µM] | other results
Cc1cccc(C)c1NC(=O)c1ccc(NC(=O)CSc2nc3ccccc3n3cnnc23)cc1 | 68.7 | 54.2 | 
O=C(Cn1c(=O)c2nncn2c2ccccc21)Nc1ccc(C(=O)NC2CCCCC2)cc1 | 41.2 | 23.8 | 
O=C(CSc1nc2ccccc2n2cnnc12)Nc1ccc(C(=O)Nc2ccc([N+](=O)[O-])cc2)cc1 | 61.3 | 42.7 | 
O=C(CSc1nc2ccccc2n2cnnc12)Nc1ccc(C(=O)Nc2ccc(Cl)cn2)cc1 | 12.2 | 8.3 | 
O=C(CSc1nc2ccccc2n2cnnc12)Nc1ccc(C(=O)NNC(=O)c2ccccc2)cc1 | 57.1 | 41.9 | 
O=C(Cn1c(=O)c2nncn2c2ccccc21)Nc1ccc(C(=O)Nc2ccc([N+](=O)[O-])cc2)cc1 | 51.6 | 42.5 | 
O=C(Cn1c(=O)c2nncn2c2ccccc21)Nc1ccc(C(=O)Nc2ccc(Cl)cn2)cc1 | 71.4 | 47.6 | 
O=C(CSc1nc2ccccc2n2cnnc12)Nc1ccc(C(=O)Nc2ccccn2)cc1 | 54.7 | 51.5 | 
O=C(CSc1nc2ccccc2n2cnnc12)Nc1ccc(C(=O)NNC(=O)c2ccc([N+](=O)[O-])cc2)cc1 | 72.7 | 52.4 | 
Cc1cccc(C)c1NC(=O)c1ccc(NC(=O)Cn2c(=O)c3nncn3c3ccccc32)cc1 | 21.5 | 17.5 | 
Cc1ccccc1NC(=O)c1ccc(NC(=O)CSc2nc3ccccc3n3cnnc23)cc1 | 38.2 | 31.8 | 
Cc1cccc(NC(=O)c2ccc(NC(=O)Cn3c(=O)c4nncn4c4ccccc43)cc2)c1 | 10.3 | 6.5 | 
O=C(Cn1c(=O)c2nncn2c2ccccc21)Nc1ccc(C(=O)NCc2ccccc2)cc1 | 9.7 | 7.9 | 
O=C(Cn1c(=O)c2nncn2c2ccccc21)Nc1ccc(C(=O)NNC(=O)c2ccccc2)cc1 | 23.7 | 15.4 | 
O=C(Cn1c(=O)c2nncn2c2ccccc21)Nc1ccc(C(=O)Nc2ccccc2)cc1 | 68.3 | 57.5 | 
O=C(CSc1nc2ccccc2n2cnnc12)Nc1ccc(C(=O)NCc2ccccc2)cc1 | 52.7 | 43.5 | 
O=C(CSc1nc2ccccc2n2cnnc12)Nc1ccc(C(=O)NNc2ccccc2)cc1 | 59.3 | 37.8 | 
O=C(Cn1c(=O)c2nncn2c2ccccc21)Nc1ccc(C(=O)NNC(=O)c2ccc([N+](=O)[O-])cc2)cc1 | 31.1 | 19.7 | 
Cc1cccc(NC(=O)c2ccc(NC(=O)CSc3nc4ccccc4n4cnnc34)cc2)c1 | 46.7 | 23.6 | 
O=C(CSc1nc2ccccc2n2cnnc12)Nc1ccc(C(=O)Nc2ccccc2)cc1 | 8.2 | 5.4 | Activity (HepG2 [2]): 30.27%; Activity (HepG2 [3]): 25.99%; Activity (HepG2 [4]): 42.55%; Activity (HepG2 [5]): 0.22%; viability at 5.4 µM (HepG2 [6]): 69.4%; Activity (HepG2 [7]): 0.14%; IC50 (Hepatocyte): 31.3 µM; Activity (HepG2 [8]): 30.12%; Activity (HepG2 [9]): 1.32%
O=C(CSc1nc2ccccc2n2cnnc12)Nc1ccc(C(=O)NC2CCCCC2)cc1 | 69.2 | 64.8 | 
CNC(=O)c1cc(Oc2ccc(NC(=O)Nc3ccc(Cl)c(C(F)(F)F)c3)cc2)ccn1 [SORAFENIB] |  | 2.17 | IC50 (Hepatocyte): 16.6 µM
